Assay [1] concerns the target T1, hOT7T175 (Homo sapiens, UniProt Q969F8).
T1 construct: expressed in transfected cells
In words: Intracellular Ca ion level-increasing activity using FLIPR (180 seconds; specific activity to Metastin (1-54)). Type of assay: cell-based. Conditions: hOT7T175/CHO, change in intracellular calcium ion level for 180 seconds, Tables 21-23.

Assay [2] has as its target T2, hOT7T175 (Homo sapiens, UniProt Q969F8, L364H).
T2 construct: expressed in transfected cells
Type of assay: cell-based. The following applies: hOT7T175/CHO, FLIPR, evaluation for 40 seconds after initiation of the reaction.
Description: The intracellular Ca ion level-increasing activity was measured using FLIPR as in TEST EXAMPLE 2.

Starred links: 1 amine or outer side, 2 acyl side, 3 side chain; linkers in the order of their positions; H or OH if unused. Non-standard residues stand in square brackets, D forms with d. Residues, ends and D or L forms follow the SMILES beside them. No end group written: not given here. *: point of attachment. X1 = NC(=O)C[C@@H](C(=O)[*:2])N(C[C@@H](N)Cc1ccc(O)cc1)[*:1]; X3 = O=C(CNC(=S)[C@H](Cc1ccccc1)N[*:1])[*:2]; Arg(Me) = CNC(=N)NCCC[C@H](N)C(=O)O; Tryptamide = c1ccc2c(CCN*)c[nH]c2c1; 4Pal = N[C@@H](Cc1ccncc1)C(=O)O; Cha = N[C@@H](CC1CCCCC1)C(=O)O; X2 = O=C(Cc1c[nH]c2ccccc12)*; X7 = O=C(c1c[nH]c2ccccc12)*; CO = O=C([*:1])[*:2]; Bz = O=C(c1ccccc1)*; azaGly = NNC(=O)O

T1 sequence (Q969F8 whole entry L364H): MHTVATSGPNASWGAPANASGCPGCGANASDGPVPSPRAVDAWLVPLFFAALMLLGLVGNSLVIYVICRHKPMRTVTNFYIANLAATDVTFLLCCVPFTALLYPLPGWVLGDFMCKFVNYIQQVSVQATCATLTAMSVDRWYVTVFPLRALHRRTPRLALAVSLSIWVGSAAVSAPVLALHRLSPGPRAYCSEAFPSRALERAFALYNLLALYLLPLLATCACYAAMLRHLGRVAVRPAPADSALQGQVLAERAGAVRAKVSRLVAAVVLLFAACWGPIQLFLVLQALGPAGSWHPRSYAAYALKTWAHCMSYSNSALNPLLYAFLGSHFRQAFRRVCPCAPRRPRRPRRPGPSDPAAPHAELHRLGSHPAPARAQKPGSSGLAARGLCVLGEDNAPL
T2 sequence (Q969F8 whole entry L364H): as above

On to `CNC(=N)NCCC[C@H](NC(=O)[C@H](CC(C)C)NC(=O)NNC(=O)[C@H](Cc1ccccc1)NC(=O)[C@H](CO)NC(=O)[C@H](CC(N)=O)NC(=O)[C@H](Cc1c[nH]c2ccccc12)NC(=O)[C@H](CC(N)=O)NC(=O)[C@H](N)Cc1ccc(O)cc1)C(=O)N[C@@H](Cc1ccc(F)cc1)C(N)=O` [Compound No. 318, D-Tyr-Asn-Trp-Asn-Ser-Phe-AzaGly-Leu-Arg(Me)-Phe(4F)-NH2], for which the “intracellular Ca ion level-increasing activity [specific activity to Metastin (1-54)]” value at hOT7T175 [1] is 5. At hOT7T175 [2], the “Specific Act. (EC50/MS10 EC50)” value stood at 2.9.
For “Pyridazine-4-carbonyl-Phe-AzaGly-Leu-Arg(Me)-Trp-NH2 [Compound No. 480]”, in that order: 1 and 8.3.
In the same order, the values of “3-Phenylpropionyl-Asn-Ile-Phe-AzaGly-Leu-Arg(Me)-Trp-NH2 [Compound No. 506]” are 1 and 1.3.
In the same order, the values of “Benzoyl-PheΨ(NHCO)Gly-Leu-Arg(Me)-Trp-NH2 [Compound No. 423]” are 5 and 5.6.
Take “4-Aminobenzoyl-Phe-AzaGly-Leu-Arg(Me)-Trp-NH2 [Compound No. 472]”: on hOT7T175 [1], the “intracellular Ca ion level-increasing activity [specific activity to Metastin (1-54)]” value turned out to be 3. The “Specific Act. (EC50/MS10 EC50)” value at hOT7T175 [2] amounted to 3.4.
For the compound “Pyrrole-3-carbonyl-Phe-AzaGly-Leu-Arg(Me)-Trp-NH2 [Compound No. 474]”, at hOT7T175 [1], the “intracellular Ca ion level-increasing activity [specific activity to Metastin (1-54)]” value was 5. The “Specific Act. (EC50/MS10 EC50)” value on hOT7T175 [2] is listed as 3.2.
For “D-Tyr-D-Pya(4)-Asn-Trp-Phe-AzaGly-Leu-Arg(Me)-Trp-NH2 [Compound No. 491]”, in that order: 7 and 1.0.
For the compound “Dimethylcarbamoyl-Phe-AzaGly-Leu-Arg(Me)-Trp-NH2 [Compound No. 467]”, at hOT7T175 [1], the “intracellular Ca ion level-increasing activity [specific activity to Metastin (1-54)]” value is recorded as 1. In addition, the “Specific Act. (EC50/MS10 EC50)” value on hOT7T175 [2] stood at 4.0.
Regarding “3-Phenylpropionyl-Asn-Ser-Trp-AzaGly-Leu-Arg(Me)-Trp-NH2 [Compound No. 507]”, at hOT7T175 [1], the “intracellular Ca ion level-increasing activity [specific activity to Metastin (1-54)]” value was determined as 5. For the same compound, the “Specific Act. (EC50/MS10 EC50)” value at hOT7T175 [2] is 1.7.
For `CNC(=N)NCCC[C@H](NC(=O)[C@H](CC(C)C)NC(=O)NNC(=O)[C@H](Cc1ccccc1)NC(=O)[C@H](CO)NC(=O)[C@H](CC(N)=O)NC(=O)Cc1c[nH]c2ccccc12)C(=O)N[C@@H](Cc1ccccc1)C(N)=O` [Compound No. 266, Indol-3-acetyl-Asn-Ser-Phe-AzaGly-Leu-Arg(Me)-Phe-NH2] (X2-NSF[azaGly]L[Arg(Me)]F-NH2), in that order: 2 and 5.4.
On to `CC(C)C[C@H](NC(=O)CNC(=O)[C@H](Cc1ccccc1)NC(=O)[C@H](CO)NC(=O)[C@H](CC(N)=O)NC(=O)[C@H](Cc1c[nH]c2ccccc12)NC(=O)[C@H](CC(N)=O)NC[C@@H](N)Cc1ccc(O)cc1)C(=O)N[C@@H](CCCNC(=N)N)C(=O)N[C@@H](Cc1ccccc1)C(N)=O` [Compound No. 294] (H-[X1]WNSFGLRF-NH2), for which the “intracellular Ca ion level-increasing activity [specific activity to Metastin (1-54)]” value at hOT7T175 [1] was 10. Besides, on hOT7T175 [2], the “Specific Act. (EC50/MS10 EC50)” value was found to be 0.7.
On to `CNC(=N)NCCC[C@H](NC(=O)[C@H](CC(C)C)NC(=O)CNC(=S)[C@H](Cc1ccccc1)NC(=O)[C@H](CO)NC(=O)[C@H](CC(N)=O)NC(=O)[C@H](Cc1c[nH]c2ccccc12)NC(=O)[C@H](CC(N)=O)NC(=O)[C@H](N)Cc1ccc(O)cc1)C(=O)N[C@@H](Cc1ccccc1)C(N)=O` [Compound No. 296, D-Tyr-Asn-Trp-Asn-Ser-PheΨ(CSNH)Gly-Leu-Arg(Me)-Phe-NH2] (H-[dY]NWNS[X3]L[Arg(Me)]F-NH2), for which the “intracellular Ca ion level-increasing activity [specific activity to Metastin (1-54)]” value on hOT7T175 [1] amounted to 3. At hOT7T175 [2], the “Specific Act. (EC50/MS10 EC50)” value stood at 5.2.
In the same order, the values of “D-Tyr-D-Pya(4)-Asn-Ser-Cha-Ala-Leu-Arg(Me)-Trp-NH2 [Compound No. 497]” are 2 and 1.4.
For `CNC(=N)NCCC[C@H](NC(=O)[C@H](CC(C)C)NC(=O)CNC[C@H](Cc1ccccc1)NC(=O)[C@H](CO)NC(=O)[C@H](CC(N)=O)NC(=O)[C@H](Cc1c[nH]c2ccccc12)NC(=O)[C@H](CC(N)=O)NC(=O)[C@H](N)Cc1ccc(O)cc1)C(=O)N[C@@H](Cc1ccccc1)C(N)=O` [Compound No. 308, D-Tyr-Asn-Trp-Asn-Ser-PheΨ(CH2NH)Gly-Leu-Arg(Me)-Phe-NH2], in that order: 2 and 2.6.
On to “Bz-[Cha][azaGly]L[Arg(Me)]W-NH2 [Compound No. 449]”, for which, at hOT7T175 [1], the “intracellular Ca ion level-increasing activity [specific activity to Metastin (1-54)]” value worked out at 5. Besides, at hOT7T175 [2], the “Specific Act. (EC50/MS10 EC50)” value is on record as 4.2.
As for “Ac-Phe-AzaGly-Leu-Arg(Me)-Trp-NH2 [Compound No. 358]”, the “intracellular Ca ion level-increasing activity [specific activity to Metastin (1-54)]” value at hOT7T175 [1] was found to be 2. Also, the “Specific Act. (EC50/MS10 EC50)” value at hOT7T175 [2] is 5.6.
In the same order, the values of “Dibenzylcarbamoyl-AzaGly-Leu-Arg(Me)-Trp-NH2 [Compound No. 393]” are 1 and 5.9.
For “Cyclopropanecarbonyl-Cha-AzaGly-Leu-Arg(Me)-Trp-NH2 [Compound No. 451]”, in that order: 5 and 2.6.
For “D-Tyr-Pya(4)-Ala-Ser-Phe-AzaGly-Leu-Arg(Me)-Trp-NH2 [Compound No. 502]”, in that order: 10 and 1.4.
“D-Tyr-D-Pya(4)-Thr-Ser-Phe-AzaGly-Leu-Arg(Me)-Trp-NH2 [Compound No. 493]”: on hOT7T175 [1], the “intracellular Ca ion level-increasing activity [specific activity to Metastin (1-54)]” value was found to be 2. Moreover, the “Specific Act. (EC50/MS10 EC50)” value at hOT7T175 [2] came to 2.2.
In the same order, the values of “D-Tyr-D-Pya(4)-Asn-Ile-Phe-AzaGly-Leu-Arg(Me)-Trp-NH2 [Compound No. 498]” are 7 and 1.5.
Turning to `CNC(=N)NCCC[C@H](NC(=O)[C@H](CC(C)C)NC(=O)NNC(=O)[C@H](Cc1ccccc1)NC(=O)[C@H](CO)NC(=O)[C@H](CC(N)=O)NC(=O)c1c[nH]c2ccccc12)C(=O)N[C@@H](Cc1ccccc1)C(N)=O` [Compound No. 265, Indole-3-carbonyl-Asn-Ser-Phe-AzaGly-Leu-Arg(Me)-Phe-NH2] (X7-NSF[azaGly]L[Arg(Me)]F-NH2), the “intracellular Ca ion level-increasing activity [specific activity to Metastin (1-54)]” value at hOT7T175 [1] is reported as 3. Besides, the “Specific Act. (EC50/MS10 EC50)” value at hOT7T175 [2] is 4.4.
In the case of “4-Imidazolecarbonyl-Phe-AzaGly-Leu-Arg(Me)-Trp-NH2 [Compound No. 459]”, the “intracellular Ca ion level-increasing activity [specific activity to Metastin (1-54)]” value on hOT7T175 [1] was 2. Further, the “Specific Act. (EC50/MS10 EC50)” value on hOT7T175 [2] is listed as 7.3.
With “Acp-D-Tyr-D-Pya(4)-Asn-Ser-Phe-AzaGly-Leu-Arg(Me)-Phe-NH2 [Compound No. 504]”, the “intracellular Ca ion level-increasing activity [specific activity to Metastin (1-54)]” value on hOT7T175 [1] is on record as 2. In addition, the “Specific Act. (EC50/MS10 EC50)” value at hOT7T175 [2] amounted to 6.9.
As for “[dY][dW]ASF[azaGly]L[Arg(Me)]W-NH2 [Compound No. 503]”, at hOT7T175 [1], the “intracellular Ca ion level-increasing activity [specific activity to Metastin (1-54)]” value turned out to be 10. Further, the “Specific Act. (EC50/MS10 EC50)” value at hOT7T175 [2] is given as 0.4.
“3-Phenylpropionyl-Ala-Ser-Phe-AzaGly-Leu-Arg(Me)-Trp-NH2 [Compound No. 500]”: the “intracellular Ca ion level-increasing activity [specific activity to Metastin (1-54)]” value on hOT7T175 [1] is on record as 1. Also, the “Specific Act. (EC50/MS10 EC50)” value at hOT7T175 [2] was determined as 3.2.
For `CNC(=N)NCCC[C@H](NC(=O)[C@H](CC(C)C)NC(=O)NNC(=O)[C@H](Cc1ccccc1)NC(=O)[C@H](CO)NC(=O)[C@H](CC(N)=O)NC(=O)[C@H](Cc1ccncc1)NC(=O)[C@@H](CC(N)=O)NC(=O)[C@H](N)Cc1ccc(O)cc1)C(=O)N[C@@H](Cc1ccccc1)C(N)=O` [Compound No. 303, D-Tyr-D-Asn-Pya(4)-Asn-Ser-Phe-AzaGly-Leu-Arg(Me)-Phe-NH2] (H-[dY][dN][4Pal]NSF[azaGly]L[Arg(Me)]F-NH2), in that order: 5 and 6.9.
For “3-Furancarbonyl-Phe-AzaGly-Leu-Arg(Me)-Trp-NH2 [Compound No. 454]”, in that order: 6 and 2.5.
“6-Chloronicotinoyl-Phe-AzaGly-Leu-Arg(Me)-Trp-NH2 [Compound No. 463]”: the “intracellular Ca ion level-increasing activity [specific activity to Metastin (1-54)]” value on hOT7T175 [1] stood at 2. Also, the “Specific Act. (EC50/MS10 EC50)” value on hOT7T175 [2] is listed as 4.6.
For “Dap-D-Tyr-Asn-Trp-Asn-Ser-Phe-Gly-Leu-Arg(Me)-Phe-NH2 [Compound No. 387]”, in that order: 1 and 5.0.
In the same order, the values of “(2S)-2-(3-Indolylprpionyloxy)-3-phenylpropionyl-AzaGly-Leu-Arg(Me)-Trp-NH2 [Compound No. 379]” are 2 and 3.0.
Regarding `CNC(=N)NCCC[C@H](NC(=O)[C@H](CC(C)C)NC(=O)NNC(=O)[C@H](Cc1ccccc1)NC(=O)[C@H](CO)NC(=O)[C@H](CC(N)=O)NC(=O)NCCc1c[nH]c2ccccc12)C(=O)N[C@@H](Cc1ccccc1)C(N)=O` [Compound No. 279, 2-(indol-3-yl)ethylcarbamoyl-Asn-Ser-Phe-AzaGly-Leu-Arg(Me)-Phe-NH2] ({Tryptamide-CO}-NSF[azaGly]L[Arg(Me)]F-NH2), on hOT7T175 [1], the “intracellular Ca ion level-increasing activity [specific activity to Metastin (1-54)]” value was determined as 5. The “Specific Act. (EC50/MS10 EC50)” value on hOT7T175 [2] is on record as 6.4.
In the same order, the values of “Isobutyryl-Phe-AzaGly-Leu-Arg(Me)-Trp-NH2 [Compound No. 438]” are 3 and 3.0.

The values above are taken from patent US8778871B2 (Takeda Pharmaceutical Company Limited, priority 2004, dated 2014).
